In one experiment the test system is Iron-corrected T1 (cT1). Description: Phase 1 12-week NAFLD study (Example 1): iron-corrected T1 (cT1) responder analysis. The format is in vivo, human. To be noted: week 12. The source says: Provided herein is disclosure of a Phase 1, multicenter, randomized, double-blind, placebo-controlled study to assess the effects of Pemvidutide (also termed herein as ALT-801), the safety of Pemvidutide and effects on hepatic fat fraction, anthropometric parameters, lipid metabolism, inflammatory markers and fibrosis markers in diabetic and non-diabetic (type 2 diabetes) overweight and obese (BMI 28.0 kg/m^2) subjects with NAFLD. This study was designed to assess changes in hepatic fat fraction by MRI-PDFF (magnetic resonance imaging-proton density fat fraction) in diabetic and non-diabetic overweight and obese subjects with NAFLD after 12 weeks of ALT-801 treatment. The trial was conducted without adjunctive diet and exercise interventions. The study assessed changes in body weight, lipid metabolism, metabolic markers, and inflammatory markers and safety and tolerability of ALT-801 after 12 weeks of treatment. Subjects were stratified for the presence or absence of diabetes at baseline. Fibroscan and cT1 assessments evaluated changes in liver inflammatory and fibrotic activity at the end of 12 weeks of treatment.
The study, described in this example, was carried out in 94 subjects overweight and obese (body mass index [BMI] ≥28.0 kg/m^2) Type 2 diabetic and non-diabetic subjects with nonalcoholic fatty liver disease (NAFLD) over about 4.5 months, including up to a 35-day screening period, and 85-day treatment period and a 25-day follow-up period, with treatment with ALT-801 (a composition comprising SEQ ID NO.: 1, “study medication”) or placebo administered by subcutaneous (SC) injection once weekly for up to twelve (12) doses.
After providing informed consent, subjects underwent a screening period of up to 35 days. Subjects were instructed on how to maintain their normal diets, alcohol consumption and physical activities and not to start any new diets, supplements, or exercise programs at any time while participating in the study. […]

The next experiment concerns liver fat content. Description: Phase 1b 24-week NAFLD study (Example 3): liver fat content and liver volume by MRI-PDFF. The format is in vivo, human. The source says: Provided herein is disclosure of a 12-week extension study of the study provided in Example 1, providing a 24-week a Phase 1b, randomized, double-blind, placebo-controlled study to assess the effects of pemvidutide (also termed herein as ALT-801), the safety of pemvidutide and effects on weight loss, hepatic fat fraction, anthropometric parameters, lipid metabolism, as well as inflammatory, fibrosis and other markers in diabetic and non-diabetic (type 2 diabetes) overweight and obese (BMI≥28.0 kg/m^2) subjects with NAFLD (defined as liver fat content (LFC) by MRI-PDFF ≥10%; absence of significant fibrosis, defined as FibroScan® LSM ≤10 kPa), alanine aminotransferase (ALT) and aspartate aminotransferase (AST) laboratory values of ≤75 IU/L and HbA1c <9.5. Men and women aged 18-65 years were studied. Diabetic subjects were defined as those that have undergone stable dose (≥3 months) metformin or SLGT-2 therapy and no use of insulin, sulfonylureas, DPP-4, GLP-1 treatment; Ninety-four (94) subjects were enrolled in the initial 12-week Phase 1b NAFLD trial and 83 subjects who completed were invited to receive a total of 12 additional weeks of blinded treatment. Of those subjects, 66 consented to rollover, of which 64 were eligible to participate.
The primary endpoint of this study was a reduction in liver fat content (LFC) by MRI-PDFF at Week 24 compared to Week 0 (zero). Key secondary endpoints include percent (%) weight loss at Week 24 compared to Week 0 (zero), and liver inflammation by alanine aminotransferase (ALT) levels and corrected T1 (cT1) imaging at Week 24 as compared to Week 0 (zero). Adverse events (AEs), including serious and severe AEs, AEs leading to discontinuation, GI tolerability, vital signs, and glycemic control including fasting glucose and HbA1c levels were also measured.

Each structure is given as a SMILES string.

`CC[C@H](C)[C@H](NC(=O)[C@H](Cc1ccccc1)NC(=O)[C@H](CCC(=O)O)NC(=O)[C@@H]1CCCCNC(=O)CC[C@H](NC(=O)[C@H](CC(=O)O)NC(=O)[C@H](CC(C)C)NC(=O)[C@H](Cc2ccc(O)cc2)NC(=O)[C@H](CCCCN)NC(=O)[C@H](CO)NC(=O)[C@H](Cc2ccc(O)cc2)NC(=O)[C@H](CC(=O)O)NC(=O)[C@H](CO)NC(=O)[C@@H](NC(=O)[C@H](Cc2ccccc2)NC(=O)[C@@H](NC(=O)CNC(=O)[C@H](CCC(N)=O)NC(=O)C(C)(C)NC(=O)[C@@H](N)Cc2c[nH]cn2)[C@@H](C)O)[C@H](C)O)C(=O)N[C@@H](CCCCNC(=O)C2O[C@@H](OCCCCCCCCCCCCCCCCCC(=O)O)C(O)C(O)[C@@H]2O)C(=O)N[C@@H](C)C(=O)N[C@@H](C)C(=O)N1)C(=O)N[C@@H](CCC(N)=O)C(=O)N[C@@H](Cc1c[nH]c2ccccc12)C(=O)N[C@@H](CC(C)C)C(=O)N[C@@H](CC(C)C)C(=O)N[C@@H](CCC(N)=O)C(=O)N[C@H](C(N)=O)[C@@H](C)O` (stereo partly drawn) [ALT-801, Pemvidutide]: the “proportion of subjects showing >=80 ms for Iron-corrected T1 (cT1)” value is listed as 87.5% in the experiment on Iron-corrected T1 (cT1) (1.2 mg), 83.3% in the experiment with Iron-corrected T1 (cT1) (1.8 mg) and 85.7% in the experiment on Iron-corrected T1 (cT1) (2.4 mg). Moreover, the “mean absolute reduction in liver fat (MRI-PDFF)” value was 11.2% with liver fat content (1.2 mg per week, week 24); 17% in the experiment on liver fat content (1.8 mg per week, week 24); 15.6% in the experiment on liver fat content (2.4 mg per week, week 24). In addition, the “mean relative reduction in liver fat (MRI-PDFF)” value in the experiment on liver fat content (1.2 mg per week, week 24) was determined as 56.3%; with liver fat content (1.8 mg per week, week 24) it was 75.2%; in the experiment with liver fat content (2.4 mg per week, week 24) it was 76.4%. For the same compound, the “liver fat of an exemplary subject (MRI-PDFF)” value with liver fat content (1.8 mg dose, Week 24, 32.3% at baseline) was determined as 1.7%. For the same compound, the “proportion of subjects with normalization (<=5%) in liver fat content” value was 53.8% in the experiment on liver fat content (1.8 mg, week 24) and 45.3% in the experiment with liver fat content (2.4 mg, week 24). The “relative liver fat reductions (study conclusion)” value in the experiment with liver fat content (24 weeks) was “greater than 75%”. Moreover, the “liver volume (MRI-PDFF)” value in the experiment with liver fat content (all doses, week 24) is “robust reduction in liver volume”. Moreover, the “percentage of subjects achieving at least 30% and 50% reduction in liver fat content vs placebo” value in the experiment on liver fat content (all doses, week 24) is recorded as “highly significant”.
